Reference: patent publication US20130337579A1, “Methods for Determining Protein Ligand Binding” (UNIVERSITY OF MARYLAND, COLLEGE PARK, priority 2010, published 2013)

How the values were obtained:
Alg44PilZ = molecular target: T1, Alg44PilZ (Pseudomonas aeruginosa, UniProt Q9HY69); conditions: estimated by filter binding, previous studies; cited from earlier work
T1 construct: Previous studies of the dissociation rate of cdiGMP from Alg44PilZ

HisMBP-Alg44PilZ = molecular target: T2, HisMBP-Alg44PilZ (Pseudomonas aeruginosa, UniProt Q9HY69); assay: DRaCALA competition of cold nucleotides with 32P-cdiGMP binding to HisMBP-Alg44PilZ; set-up: species or system P. aeruginosa; conditions: 4 nM 32P-cdiGMP
T2 construct: His-MBP-Alg44PilZ was varied from 100 μM to 6 nM; made in house; host or cells: E. coli BL21(DE3)
T2 sequence (Q9HY69 16-116): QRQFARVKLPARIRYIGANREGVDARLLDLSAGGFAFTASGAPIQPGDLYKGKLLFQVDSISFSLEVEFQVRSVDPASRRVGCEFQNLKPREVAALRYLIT
Experimental: FIG. 2. Detection of specific protein-ligand interactions by DRaCALA. (A) DRaCALA images of interactions between purified proteins (20 μM) incubated with 500 nM ^14C-cAMP, 4 nM ^32P-ATP, or 4 nM ^32P-cdiGMP. Protein-ligand mixtures were spotted on nitrocellulose and allowed to dry prior to imaging using a Fuji FLA7100 phosphorimager. Cognate protein-nucleotide combinations are indicated by arrowheads. MBP was used as a negative control. (B) DRaCALA images of competition assays assessing the ability of 1 mM of the indicated cold nucleotides to compete with binding interactions between 4 nM ^32P-cdiGMP and 2.5 μM HisMBP-Alg44PilZ. (C) Graph of fraction bound for each sample in […] with averages indicated by a horizontal bar. NC indicates no competitor. P values were determined by a Student's t-test for significant differences when compared to the no-competitor (NC) control for three independent experiments. For total intensity of each DRaCALA spot in FIGS. 2A and 2B, see Tables 1 and 2, respectively.
Radiolabeled ligands were incubated with each of the proteins and the mixtures were spotted on nitrocellulose. After spreading by capillary action, membranes were dried and quantitated by phosphorimager. […] Each of the radiolabel signals from MBP mixtures was distributed by capillary action (FIG. 2A). […] The specificity of Alg44PilZ binding to cdiGMP was further tested by competition with excess unlabeled nucleotides (400-fold molar excess relative to the Alg44PilZ protein). Alg44PilZ binding to ^32P-cdiGMP was abolished by cdiGMP, but not by cGMP, GMP, GDP, GTP, ATP, CTP or UTP as was previously described (FIG. 2B). The FB for cdiGMP was 0.31±0.07, which was reversed by competition with unlabeled cdiGMP to the background level of 0.04±0.01 (FIG. 2C).
(§1) Protein or whole cell lysates in 1× cdiGMP binding buffer (20 μl) was mixed with 4 nM of radiolabeled nucleotide and allowed to incubate for 10 minutes at room temperature. Radiolabeled nucleotide was competed away by cold nucleotides in concentrations and for times indicated. Purified proteins were tested in technical replicates. Whole cell lysates in FIG. 4 and FIG. 12 were tested in biological triplicates. Whole cell lysates in FIG. 5 were tested in technical replicates. These mixtures were pipetted (2.5-5 μl) onto dry, untreated nitrocellulose (GE Healthcare) in triplicate and allowed to dry completely before quantification. An FLA7100 Fujifilm Life Science Phosphorimager was used to detect luminescence following a 5-minute exposure of blotted nitrocellulose to phosphorimager film. Data was quantified using Fujifilm Multi Gauge software v3.0.

[1] = test system: lysates from various organisms or tissues; assay: DRaCALA analysis of cdiGMP binding by lysates from various organisms or tissues
E. coli NtrB = E. coli NtrB (Escherichia coli, UniProt P0AFB5); assay: DRaCALA binding of radiolabeled nucleotides to purified NtrB; conditions: 20 μM purified protein; 500 nM 14C-cAMP, 4 nM 32P-ATP or 4 nM 32P-cdiGMP
Sequence of E. coli NtrB (P0AFB5 whole entry): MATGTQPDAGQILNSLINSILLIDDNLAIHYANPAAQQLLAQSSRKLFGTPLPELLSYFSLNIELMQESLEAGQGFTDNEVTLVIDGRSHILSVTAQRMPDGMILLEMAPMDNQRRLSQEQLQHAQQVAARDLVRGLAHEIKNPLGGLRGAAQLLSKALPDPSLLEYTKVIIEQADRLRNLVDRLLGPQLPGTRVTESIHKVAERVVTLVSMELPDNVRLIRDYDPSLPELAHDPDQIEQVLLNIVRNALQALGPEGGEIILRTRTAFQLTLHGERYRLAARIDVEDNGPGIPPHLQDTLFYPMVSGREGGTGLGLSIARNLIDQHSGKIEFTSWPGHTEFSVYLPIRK
Experimental: Radiolabeled ligands were incubated with each of the proteins and the mixtures were spotted on nitrocellulose. After spreading by capillary action, membranes were dried and quantitated by phosphorimager. […] The specificity of Alg44PilZ binding to cdiGMP was further tested by competition with excess unlabeled nucleotides (400-fold molar excess relative to the Alg44PilZ protein).
as §1

[2] = molecular target: T3, Alg44PilZ expressed in E. coli BL21(DE3) (Pseudomonas aeruginosa, UniProt Q9HY69); assay: DRaCALA of whole cell lysates of E. coli BL21(DE3) expressing Alg44PilZ; assay type: binding, P. aeruginosa
T3 construct: E. coli BL21(DE3) expressing Alg44PilZ and variants; expressed in transfected cells; host or cells: E. coli BL21(DE3), whole cell lysate
T3 sequence (Q9HY69 16-116): as the sequence (Q9HY69 16-116) above
Description: A major limitation of most biochemical assays is the requirement for purified protein. We asked whether DRaCALA could be applied to crude extracts to overcome this limitation. Alg44PilZ binding to cdiGMP requires a number of conserved residues, including R17, R21, D44 and S46, in the PilZ domain of the protein. E. coli BL21(DE3) expressing Alg44PilZ and variants with R21A, D44A, S46A, and R17A/R21A substitutions were lysed and tested for binding to cdiGMP using DRaCALA. […] Only the whole cell lysates from E. coli expressing wild-type Alg44PilZ sequestered ^32P-cdiGMP (FIG. 4A). […] A significant difference between the bound fractions for cdiGMP or GTP competition experiments was detected for the wild-type Alg44PilZ, but not for the PilZ domain mutants (FIGS. 4A and 4B). […]
Protein or whole cell lysates in 1× cdiGMP binding buffer (20 μl) was mixed with 4 nM of radiolabeled nucleotide and allowed to incubate for 10 minutes at room temperature. […] These mixtures were pipetted (2.5-5 μl) onto dry, untreated nitrocellulose (GE Healthcare) in triplicate and allowed to dry completely before quantification. An FLA7100 Fujifilm Life Science Phosphorimager was used to detect luminescence following a 5-minute exposure of blotted nitrocellulose to phosphorimager film. Data was quantified using Fujifilm Multi Gauge software v3.0. […]

T1 sequence (Q9HY69 16-116): as above

SMILES: Nc1nc2c(ncn2[C@@H]2O[C@@H]3CO[P@](=O)(O)O[C@H]4[C@@H](O)[C@H](n5cnc6c(=O)[nH]c(N)nc65)O[C@@H]4CO[P@](=O)(O)O[C@H]3[C@H]2O)c(=O)[nH]1 [cdiGMP, cyclic-di-GMP]
- half-life of the complex (Alg44PilZ): 5 min
- fraction bound (FB) after competition with unlabeled cdiGMP (HisMBP-Alg44PilZ; 1 mM unlabeled cdiGMP): 0.04±0.01
- fraction bound (FB) (HisMBP-Alg44PilZ; no competitor): 0.31±0.07
- Alg44PilZ binding to 32P-cdiGMP abolished by unlabeled nucleotide (HisMBP-Alg44PilZ; 1 mM cold nucleotide (400-fold molar excess over protein)): abolished
- BC (non-specific binding) ([1]; mammalian tissue extracts from rodent and human cell lines): > 0.233
- BSp ([1]; whole cell extracts of protozoa, fungi and nematodes): below 1.17
- binding to NtrB (sequestration of radiolabel signal) (E. coli NtrB): not
- specific sequestration by whole cell extracts with soluble or insoluble protein ([2]; Alg44PilZ with or without MBP tag, BL21 whole cell extracts): specifically sequester
- sequestration of 32P-cdiGMP by whole cell lysate ([2]; E. coli BL21(DE3) expressing wild-type Alg44PilZ): sequestered
